# Source: patent US8492397B2, “Aminopyridine derivatives having Aurora A selective inhibitory action” (Vertex Pharmaceuticals Incorporated, priority 2009, dated 2013)
# Assays:
# Aurora B = molecular target: T1, Aurora B (Homo sapiens, UniProt Q96GD4); test: Aurora B inhibitory action (33P-ATP Kemptide phosphorylation, filter assay); format: biochemical; settings: His-tagged Aurora B, 100 μM Kemptide, 100 μM ATP, 30° C., 20 minutes
# T1 construct: histidine tag (N); made in house; host or cells: Escherichia coli BL21-CodonPlus(DE3)-RIL
# T1 sequence (Q96GD4 whole entry): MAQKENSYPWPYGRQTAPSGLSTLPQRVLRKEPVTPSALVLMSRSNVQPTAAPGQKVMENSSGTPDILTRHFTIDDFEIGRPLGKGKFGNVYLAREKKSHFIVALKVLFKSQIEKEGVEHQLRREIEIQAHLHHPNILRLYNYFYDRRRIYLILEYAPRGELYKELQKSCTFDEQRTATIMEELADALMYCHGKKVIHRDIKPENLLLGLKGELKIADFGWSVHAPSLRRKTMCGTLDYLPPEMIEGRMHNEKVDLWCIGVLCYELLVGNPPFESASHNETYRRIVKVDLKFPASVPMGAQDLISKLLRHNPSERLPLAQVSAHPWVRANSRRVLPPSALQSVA
# Source text: (§1) cDNA of Aurora B having histidine tag fused at the amino terminal was integrated into an expression vector, which was then highly expressed in Escherichia coli BL21-CodonPlus(DE3)-RIL cells. The Escherichia coli cells were recovered and solubilized, and then the histidine-tagged […] protein was adsorbed onto a nickel chelate column and eluted from the column with imidazole, The active fraction was desalted with a desalting column to give a pure enzyme.
# For measurement of the activity of Aurora B, the substrate used was Kemptide (Leu-Arg-Arg-Ala-Ser-Leu-Gly) (SEQ.ID.NO.: 1), a synthetic peptide purchased from Sigma-Aldrich, Inc, [Certificate of analysis (Upstate, Inc.)].
# Reaction was conducted by a partial modification of the method of activity measurement for Aurora A. The amount of the reaction liquid was 21.1 μL, and the composition of the reaction buffer (R2 buffer) was 50 mM Tris-hydrochloride buffer (pH 7.4)/15 mM magnesium acetate/0.2 mM ethylenediamine-N,N,N′,N′-tetraacetate (EDTA). To this, purified Aurora B, 100 μM of a substrate peptide, 100 μM of unlabeled adenosine triphosphate (ATP) and 1 μCi of [γ-^33P] labeled ATP (2,500 Ci/mmole or more) were added, and the mixture was reacted at 30° C. for 20 minutes. Then, 10 μL of 350 mM phosphate buffer was added to the reaction system to stop the reaction. The substrate peptide was adsorbed on a P81 paper filter 96-well plate and then washed with 130 mM phosphate buffer for several times. The radiation activity of the peptide was measured with a liquid scintillation counter. The [γ-^33P] labeled ATP was purchased from Amersham Biosciences Co., Ltd.
# Aurora A = molecular target: T2, Aurora A (Homo sapiens, UniProt O14965); test: Aurora A inhibitory action (33P-ATP Kemptide phosphorylation, filter assay); format: biochemical; settings: His-tagged Aurora A, 100 μM Kemptide, 20 μM ATP, 30° C., 20 minutes
# T2 construct: histidine tag (N); made in house; host or cells: Escherichia coli BL21-CodonPlus(DE3)-RIL
# T2 sequence (O14965 1-403): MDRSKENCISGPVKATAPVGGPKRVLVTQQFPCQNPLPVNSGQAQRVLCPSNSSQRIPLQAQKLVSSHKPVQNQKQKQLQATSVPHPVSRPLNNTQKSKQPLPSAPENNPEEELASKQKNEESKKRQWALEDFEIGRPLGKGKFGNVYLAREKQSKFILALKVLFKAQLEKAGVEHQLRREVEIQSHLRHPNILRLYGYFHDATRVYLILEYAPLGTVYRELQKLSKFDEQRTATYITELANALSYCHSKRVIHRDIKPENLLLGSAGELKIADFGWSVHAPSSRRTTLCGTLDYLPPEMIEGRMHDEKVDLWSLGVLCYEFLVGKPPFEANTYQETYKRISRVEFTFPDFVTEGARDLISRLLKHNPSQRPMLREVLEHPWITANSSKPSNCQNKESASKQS
# Source text: as §1, with “Aurora A” for “Aurora B”, “with imidazole.” for “with imidazole,”
# For measurement of the activity of Aurora A, the substrate used was Kemptide (Leu-Arg-Arg-Ala-Ser-Leu-Gly) (SEQ.ID.NO.: 1), a synthetic peptide purchased from Sigma-Aldrich, Inc. [Certificate of analysis (Upstate, Inc.)].
# Reaction was conducted by a partial modification of a method by Upstate, Inc. [Kinase Profiler™ Assay Protocols]. The amount of the reaction liquid was 21.1 μL, and the composition of the reaction buffer (R2 buffer) was 50 mM Tris-hydrochloride buffer (pH 7.4)/15 mM magnesium acetate/0.2 μM ethylenediamine-N,N,N′,N′-tetraacetate (EDTA). To this, purified Aurora A, 100 μM of a substrate peptide, 20 μM of unlabeled adenosine triphosphate (ATP) and 0.5 μCi of [γ-^33P] labeled ATP (2,500 Ci/mmole or more) were added, and the mixture was reacted at 30° C. for 20 minutes. Then, 10 μL of 350 mM phosphate buffer was added to the reaction system to stop the reaction. The substrate peptide was adsorbed on a P81 paper filter 96-well plate and then washed with 130 mM phosphate buffer for several times. The radiation activity of the peptide was measured with a liquid scintillation counter. The [γ-^33P] labeled ATP was purchased from Amersham Biosciences Co., Ltd.
# The compound to be tested was added to the reaction system such that a dilution series of the compound in dimethylsulfoxide was first prepared, and 1.1 μL of this solution was added. A control was provided by adding 1.1 μL of DMSO to the reaction system.
Structure (SMILES),IC50 (Aurora B) [nM],IC50 (Aurora A) [nM]
"Cc1cc(Nc2cc[nH]n2)nc(N2CC[C@H](NC(=O)O[C@@H](C)C(F)(F)F)C2)n1 [Example 1, (2S)-1,1,1-trifluoropropan-2-yl{(3S)-1-[4-methyl-6-(1H-pyrazol-3-ylamino)pyrimidin-2-yl]pyrrolidin-3-yl}carbamate]",210,3.6
"Cc1cc(Nc2cc(C)[nH]n2)nc(N2CC[C@H](NC(=O)O[C@@H](C)C(F)(F)F)C2)n1 [Example 3, (2S)-1,1,1-trifluoropropan-2-yl {(3S)-1-[4-methyl-6-(5-methyl-1H-pyrazol-3-ylamino)pyrimidin-2-yl]pyrrolidin-3-yl}carbamate]",190,6.4
"Cc1cc(Nc2cc[nH]n2)nc(N2CC(NC(=O)OC(C)(C)C)[C@H](C)C2)n1 (stereo in doubt) [Example 9, tert-butyl {(3R,4R)-4-methyl-1-[4-methyl-6-(1H-pyrazol-3-ylamino)pyrimidin-2-yl]pyrrolidin-3-yl}carbamate]",5800,75
"Cc1cc(Nc2cc(C)[nH]n2)nc(N2CC[C@H](NC(=O)OC(C)(C)C)C2)n1 [Example 6, tert-butyl {(3S)-1-[4-methyl-6-(5-methyl-1H-pyrazol-3-ylamino)pyrimidin-2-yl]pyrrolidin-3-yl}carbamate]",1800,28

# The remaining lines, values ahead:
IC50 (Aurora B) [nM],IC50 (Aurora A) [nM],Structure (SMILES)
310,6.2,"Cc1cc(Nc2cc[nH]n2)nc(N2CC(NC(=O)O[C@@H](C)C(F)(F)F)[C@H](C)C2)n1 (stereo in doubt) [Example 7, (2S)-1,1,1-trifluoropropan-2-yl{(3R,4R)-4-methyl-1-[4-methyl-6-(1H-pyrazol-3-ylamino)pyrimidin-2-yl]pyrrolidin-3-yl}carbamate]"
> 10000,37,"CO[C@@H]1CN(c2nc(C)cc(Nc3cc[nH]n3)n2)C[C@H]1NC(=O)O[C@@H](C)C(F)(F)F [Example 8, (2S)-1,1,1-trifluoropropan-2-yl{(3R,4R)-4-methoxyl-1-[4-methyl-6-(1H-pyrazol-3-ylamino)pyrimidin-2-yl]pyrrolidin-3-yl}carbamate]"
3800,22,"Cc1cc(Nc2cc[nH]n2)nc(N2CC[C@H](NC(=O)OC(C)(C)C(F)(F)F)C2)n1 [Example 4, 1,1,1-trifluoro-2-methylpropan-2-yl{(3S)-1-[4-methyl-6-(1H-pyrazol-3-ylamino)pyrimidin-2-yl]pyrrolidin-3-yl}carbamate]"
2200,33,"Cc1cc(Nc2cc[nH]n2)nc(N2C[C@@H](O)[C@H](NC(=O)O[C@@H](C)C(F)(F)F)C2)n1 [Example 2, (2S)-1,1,1-trifluoropropan-2-yl{(3R,4R)-4-hydroxy-1-[4-methyl-6-(1H-pyrazol-3-ylamino)pyrimidin-2-yl]pyrrolidin-3-yl}carbamate]"
